From ChEMBL document CHEMBL1140362, “Novel iron-specific fluorescent probes” (Bioorg Med Chem Lett, 2005)
“And” between values parts separate entries of the source, which are not always exact repeats. Equal entries are not always repeated.

Legend:
[1] = organism: Homo sapiens; experiment: The fluorescent suspension followed by time was estimated in the presence of Diehtylenetriamine-penta acetic acid; format: functional
[2] = Permeability parameter across human erythrocyte ghost membrane was determined by using fluorescence intensity of 10 uM in presence of Diethylenetriamine-penta acetic acid (DTPA); format: ADME; settings: erythrocytes
[3] = The fluorescent suspension followed by time was estimated in the absence of Diehtylenetriamine-penta acetic acid; format: functional
[4] = Permeability parameter across human erythrocyte ghost membrane was determined by using fluorescence intensity of 10 uM in absence of Diethylenetriamine-penta acetic acid (DTPA); format: ADME; settings: erythrocytes

Row | Fluorescence [2] | Fluorescence [4] | Compound | TIME [1] | TIME [3]
1 | 252 a.u | – | Cc1cc2[nH]c(=O)c3cc(=O)c(O)cn3c2cc1C | 0.00667 h | –
2 | 117 a.u | 127 a.u and 65 a.u | O=C1NCCn2cc(O)c(=O)cc21 | 0.0353 h | 0.03 h and 0.0786 h
